# Reference: patent publication US10030027B2, “Soluble guanylate cyclase stimulators” (MERCK SHARP & DOHME CORP., priority 2015, dated 2018)
# pEC50, pKi: −log10 of the molar value.
# Key:
# [1] = test system: Spontaneously hypertensive rats (SHR); test: Acute efficacy in spontaneously hypertensive rats (SHR); assay type: in vivo, rat
# From the text: Acute Efficacy in Spontaneously Hypertensive Rats (SHR)
# Spontaneously hypertensive rats (SHR, male, Charles River) were implanted with DSI TA11PA-C40 telemetry device (Data Sciences, Inc., St. Paul, Minn.) under isoflurane or ketamine/metomidine anesthesia. The telemetry unit catheter was inserted into the descending aorta via the femoral artery and the telemetry device was implanted subcutaneously in the left flank area. Animals were allowed to recover from surgery for 14 days before the start of any studies. Blood pressure, heart rate, and activity signals from conscious, freely moving rats were recorded continuously for 30 seconds every 10 minutes. On the day prior to administration of compound, a single oral dose of vehicle (10% transcutol/20% Cremophor/70% water) was administered to all animals to establish baseline control data. The blood pressure lowering efficacy of compound (PO) or vehicle was evaluated following a single oral gavage. Data were collected as hourly averages, and changes in blood pressure were calculated by subtracting control baseline data on an hourly basis. Animals were maintained on normal diet with a 12 hour light-dark cycle.
# Maximum peak decreases of systolic blood pressure (SBP) in SHR at a particular P.O. dose (mpk milligrams per kilogram) for the following Example compounds are provided.
# sGC α1/β1 heterodimer = sGC α1/β1 heterodimer (Homo sapiens (Human), UniProt Q02108+Q02153); test: Cell-based sGC functional assay (cyclic GMP assay for sGC activator: CASA assay); set-up: % Activation: concentration or dose not given beside the values; conditions: CHO-K1/sGC cells; for Emax: CHO-K1, activity expressed as percentage of compound A (standard), read-out: % Activation; for pEC50: inflection point, 4P fit, read-out: IP; for % Activation: activity expressed as percentage of compound A (standard)
# Outline: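 CHO-K1 cells stably expressing sGC α1/β1 were pre-incubated with or without 1 μM DETA-NO (30 min, 25 °C), then exposed to compounds for 1 hr at 37 °C with 0.5 mM IBMX. Intracellular cGMP was read by HTRF and expressed as a percentage of a reference heme-dependent activator's maximum.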
# [2] = molecular target: human recombinant sGC enzyme (Homo sapiens (Human), UniProt Q02108+Q02153); test: Size Exclusion Chromatography (SEC) competition binding assay using [3H] Ex-77B as the radioligand; conditions: [3H] Ex-77B radioligand, 24 hours at 37° C.
# Outline: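 Recombinant human sGC binding measured by competition against tritiated Ex-77B radioligand, with non-specific binding defined by 1 μM unlabeled Ex-77B.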
Emax (sGC α1/β1 heterodimer) [%],pEC50 (sGC α1/β1 heterodimer),pKi [2],% Activation (sGC α1/β1 heterodimer) [%],SMILES,Category: maximum peak decrease of systolic blood pressure (SBP) in SHR ([1]; Dose P.O. 1 mpk),Category: maximum peak decrease of systolic blood pressure (SBP) in SHR ([1]; Dose P.O. 3 mpk)
102,6.61,9.49,–,"CCCCn1nc(-c2nc(N)c3c(n2)NC(=O)C3(C)c2nc(CC(C)(C)C(=O)O)cs2)c2cccnc21 (centres unmarked) [Example 86A, 3-{2-[4-amino-2-(1-butyl-1H-pyrazolo[3,4-b]pyridin-3-yl)-5-methyl-6-oxo-6,7-dihydro-5H-pyrrolo[2,3-d]pyrimidin-5-yl]-1,3-thiazol-4-yl}-2,2-dimethylpropanoic acid]",A (decrease in SBP in SHRs 5-25 mmHg),–
127,6.61,9.91,–,"C[C@@]1(c2ccc(CCC(=O)O)cc2)C(=O)Nc2nc(-c3nn(CC4CCCCC4)c4cc(Cl)ccc34)nc(N)c21 [Example 44B, (S)-3-(4-{4-amino-2-[6-chloro-1-(cyclohexylmethyl)-1H-indazol-3-yl]-5-methyl-6-oxo-6,7-dihydro-5H-pyrrolo[2,3-d]pyrimidin-5-yl}phenyl)propanoic acid]",–,C (decrease in SBP in SHRs>40 mmHg)
–,–,–,–,"C[C@@]1(c2ccc(CCC(=O)O)cc2)C(=O)Nc2nc(-c3nn(Cc4ccccc4F)c4ccccc34)nc(N)c21 [Example 76B, (S)-3-(4-{4-Amino-2-[1-(2-fluorobenzyl)-1H-indazol-3-yl]-5-methyl-6-oxo-6,7-dihydro-5H-pyrrolo[2,3-d]pyrimidin-5-yl}phenyl)propanoic acid]",–,B (decrease in SBP in SHRs 25-40 mmHg)
–,5.15,9.66,–,"CC1(c2ccc(CCc3nn[nH]n3)cn2)C(=O)Nc2nc(-c3nn(Cc4ccccc4F)c4ccccc34)nc(N)c21 (single isomer, unassigned) [Example 246A, 5-{5-[2-(2H-tetrazol-5-yl)ethyl]pyridin-2-yl}-4-amino-2-[1-(2-fluoro-benzyl)-1H-indazol-3-yl]-5-methyl-5,7-dihydro-6H-pyrrolo[2,3-d] pyrimidin-6-one]",–,–
126,6.53,9.41,–,"CC1(c2ccc(CCC(=O)O)c(Br)c2)C(=O)Nc2nc(-c3nn(CCC(F)(F)C(F)(F)F)c4cc(Cl)ccc34)nc(N)c21 (centres unmarked) [Example 4B, 3-(4-{4-amino-2-[6-chloro-1-(3,3,4,4,4-pentafluoro-butyl)-1H-indazol-3-yl]-5-methyl-6-oxo-6,7-dihydro-5H-pyrrolo[2,3-d]pyrimidin-5-yl}-2-bromophenyl)propanoic acid]",–,–
79,6.06,8.91,–,"CC(C)(Cc1csc([C@]2(C)C(=O)Nc3nc(-c4nn(CC5CCCCO5)c5ncccc45)nc(N)c32)n1)C(=O)O (single isomer, unassigned) [Example 123AA]",–,–
130,5.08,8.85,–,"CC(C)(Cn1cc(C2(C)C(=O)Nc3nc(-c4nn(CCC(F)(F)C(F)(F)F)c5cc(Cl)ccc45)nc(N)c32)nn1)C(=O)O (centres unmarked) [Example 31B, 3-(4-{4-amino-2-[6-chloro-1-(3,3,4,4,4-pentafluorobutyl)-1H-indazol-3-yl]-5-methyl-6-oxo-6,7-dihydro-5H-pyrrolo[2,3-d]pyrimidin-5-yl}-1H-1,2,3-triazol-1-yl)-2,2-dimethylpropanoic acid]",–,–
94.4,5.61,8.78,–,"CC1(c2ccc(C(=O)O)cc2)C(=O)Nc2nc(-c3nn(Cc4ccccc4F)c4cc(Cl)ccc34)nc(N)c21 (centres unmarked) [Example 209B, 4-{4-amino-2-[6-chloro-1-(2-fluorobenzyl)-1H-indazol-3-yl]-5-methyl-6-oxo-6,7-dihydro-5H-pyrrolo[2,3-d]pyrimidin-5-yl} benzoic acid]",–,–
96.2,5.93,9.59,–,"Cc1cccc(Cn2nc(-c3nc(N)c4c(n3)NC(=O)C4(C)c3cnn(CC(C)(C)C(=O)O)c3)c3ccc(F)cc32)c1F (centres unmarked) [Example 211A, 3-(4-{4-amino-2-[6-fluoro-1-(2-fluoro-3-methyl-benzyl)-1H-indazol-3-yl]-5-methyl-6-oxo-6,7-dihydro-5H-pyrrolo[2,3-d]pyrimidin-5-yl}-1H-pyrazol-1-yl)-2,2-dimethyl-propanoic acid]",–,–
120,6.19,–,–,"C[C@@]1(c2ccc(CCC(=O)O)cc2)C(=O)Nc2nc(-c3nn(CC45CC6CC(CC(C6)C4)C5)c4cc(Cl)ccc34)nc(N)c21 [Example 70B, (S)-3-(4-{2-[1-(adamantan-1-ylmethyl)-6-chloro-1H-indazol-3-yl]-4-amino-5-methyl-6-oxo-6,7-dihydro-5H-pyrrolo[2,3-d]pyrimidin-5-yl}phenyl)propanoic acid]",–,A (decrease in SBP in SHRs 5-25 mmHg)
78,6.22,9.53,–,"CC1(c2ccc(CCCC(=O)O)cc2)C(=O)Nc2nc(-c3nn(CCC(F)(F)C(F)(F)F)c4ncccc34)nc(N)c21 (centres unmarked) [Example 116A, 4-(4-{4-amino-5-methyl-6-oxo-2-[1-(3,3,4,4,4-pentafluorobutyl)-1H-pyrazolo[3,4-b]pyridin-3-yl)-6,7-dihydro-5H-pyrrolo[2,3-d]pyrimidin-5-yl}phenyl)butanoic acid]",–,–
113,6.26,9.10,–,"CC(C)(CCc1coc(C2(C)C(=O)Nc3nc(-c4nn(Cc5ccccc5F)c5ncccc45)nc(N)c32)n1)C(=O)O (centres unmarked) [Example 206B, 4-(2-{4-amino-2-[1-(2-fluorobenzyl)-1H-pyrazolo[3,4-b]pyridin-3-yl]-5-methyl-6-oxo-6,7-dihydro-5H-pyrrolo[2,3-d]pyrimidin-5-yl}-1,3-oxazol-4-yl)-2,2-dimethyl-butanoic acid]",–,–
148,6.85,10.66,–,"CC(C)(Cc1csc([C@]2(C)C(=O)Nc3nc(-c4nn(Cc5ccccc5F)c5cc(F)ccc45)nc(N)c32)n1)C(=O)O [Example 62A, (S)-3-(2-{4-amino-2-[6-fluoro-1-(2-fluorobenzyl)-1H-indazol-3-yl]-5-methyl-6-oxo-6,7-dihydro-5H-pyrrolo[2,3-d]pyrimidin-5-yl}-1,3-thiazol-4-yl)-2,2-dimethylpropanoic acid]",–,–
134,5.97,9.97,–,"Cc1oc(C2(C)C(=O)Nc3nc(-c4nn(Cc5cccc(F)c5)c5cc(F)ccc45)nc(N)c32)nc1CC(C)(C)C(=O)O (centres unmarked) [Example 198B, 3-(2-{4-amino-2-[6-fluoro-1-(3-fluorobenzyl)-1H-indazol-3-yl]-5-methyl-6-oxo-6,7-dihydro-5H-pyrrolo[2,3-d]pyrimidin-5-yl}-5-methyl-1,3 - oxazol-4-yl)-2,2-dimethyl-propanoic acid]",–,–
104,5.53,10.35,–,"C[C@H](NC(=O)CCc1ccc([C@]2(C)C(=O)Nc3nc(-c4nn(Cc5ccccc5F)c5ncccc45)nc(N)c32)cc1)C(=O)O [Example 103B, (5S)-(3-(4-{4-amino-2-[1-(2-fluorobenzyl)-1H-pyrazolo[3,4-b]pyridin-3-yl]-5-methyl-6-oxo-6,7-dihydro-5H-pyrrolo[2,3-d]pyrimidin-5-yl}phenyl)propanoyl)-L-alanine]",–,–
–,6.95,10.04,148.2,"CC1CCC(Cn2nc(-c3nc(N)c4c(n3)NC(=O)C4(C)c3nc(CC(C)(C)C(=O)O)co3)c3ccccc32)CC1 (single isomer, unassigned) [Example 231AA, 3-{2-[4-amino-5-methyl-2-{1-[-4-methylcyclo-hexylmethyl]-1H-indazol-3-yl}-6-oxo-6,7-dihydro-5H-pyrrolo[2,3-d]pyrimidin-5-yl]-1,3-oxazol-4-yl}-2,2-dimethyl-propanoic acid]",–,–
–,6.75,9.62,72.9,"CC(C)(Cc1csc([C@]2(C)C(=O)Nc3nc(-c4nn(CC5CCCCO5)c5ccccc45)nc(N)c32)n1)C(=O)O (single isomer, unassigned) [Example 229AB]",–,–
109,5.74,10.41,–,"C[C@@]1(c2ccc(CCC(=O)NCC(=O)O)cc2)C(=O)Nc2nc(-c3nn(Cc4ccccc4F)c4ncccc34)nc(N)c21 [Example 100B, (S)-(3-(4-{4-Amino-2-[1-(2-fluorobenzyl)-1H-pyrazolo[3,4-b]pyridin-3-yl]-5-methyl-6-oxo-6,7-dihydro-5H-pyrrolo[2,3-d]pyrimidin-5-yl}phenyl)propanoyl)glycine]",–,–
92.1,6.82,9.79,–,"C[C@@]1(c2ccc(CCC(=O)O)cc2)C(=O)Nc2nc(-c3nn(Cc4ccc(F)cc4)c4ccccc34)nc(N)c21 (single isomer, unassigned) [Example 221B]",–,–
